Laboratory results from PMC8858684 (FEBS letters, 2021).

Biological target: CTX-M-14 β-lactamase (Escherichia coli, UniProt Q9L5C7)
Experiment: hydrolysis kinetics
Assay type: biochemical
Details: read-out: Cefotaxime / Km; purified enzyme

CO/N=C(\C(=O)N[C@@H]1C(=O)N2C(C(=O)O)=C(COC(C)=O)CS[C@H]12)c1csc(N)n1 [cefotaxime]
Km: 83.8 ± 2.3 µM
